Assay in all cases: fluorescence equilibrium titration of apo-AGT
Common to all, as to format: binding
Holding throughout (settings): read-out: K d(PLP) (nM) ^b

Test [1] addresses T1, alanine:glyoxylate aminotransferase (AGT), AGT WT (major allele) (Homo sapiens, UniProt P21549, I340M/P11L/R197Q).
T1 construct: gene AGXT; His-tagged full-length AGT from pCOLDII, expressed in E. coli BL21, IMAC and SEC; about 90 kDa dimer
T1 sequence (P21549 1-392 P11L/R197Q/I340M): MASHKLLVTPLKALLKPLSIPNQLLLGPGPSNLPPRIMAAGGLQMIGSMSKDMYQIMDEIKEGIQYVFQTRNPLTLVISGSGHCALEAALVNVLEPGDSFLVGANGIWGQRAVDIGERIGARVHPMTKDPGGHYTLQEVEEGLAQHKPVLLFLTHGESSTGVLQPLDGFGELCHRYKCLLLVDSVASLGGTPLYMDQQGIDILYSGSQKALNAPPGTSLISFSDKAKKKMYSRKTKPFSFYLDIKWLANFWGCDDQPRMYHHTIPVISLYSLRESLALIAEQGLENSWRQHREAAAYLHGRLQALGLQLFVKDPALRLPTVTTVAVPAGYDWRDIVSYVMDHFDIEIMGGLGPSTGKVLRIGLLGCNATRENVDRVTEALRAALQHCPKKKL
The source says: (§1) fluorescence equilibrium titration of apo-AGT on alanine:glyoxylate aminotransferase (AGT), AGT WT (major allele)

The target of test [2] is T2, alanine:glyoxylate aminotransferase (AGT), AGT WT (major allele) (Homo sapiens, UniProt P21549, I340M/P11L).
T2 construct: gene AGXT; His-tagged full-length AGT from pCOLDII, expressed in E. coli BL21, IMAC and SEC; about 90 kDa dimer
T2 sequence (P21549 1-392 P11L/I340M): T1 sequence (P21549 1-392 P11L/R197Q/I340M) with Q197R
From the text: as §1

Test [3] concerns the target T3, alanine:glyoxylate aminotransferase (AGT), AGT WT (major allele) (Homo sapiens, UniProt P21549, A368T/I340M/P11L).
T3 construct: gene AGXT; His-tagged full-length AGT from pCOLDII, expressed in E. coli BL21, IMAC and SEC; about 90 kDa dimer
T3 sequence (P21549 1-392 P11L/I340M/A368T): T1 sequence (P21549 1-392 P11L/R197Q/I340M) with Q197R, A368T
From the text: as §1

Test [4] has as its target T4, alanine:glyoxylate aminotransferase (AGT), AGT WT (major allele) (Homo sapiens, UniProt P21549).
T4 construct: gene AGXT; His-tagged full-length AGT from pCOLDII, expressed in E. coli BL21, IMAC and SEC; about 90 kDa dimer
T4 sequence (P21549 1-392): T1 sequence (P21549 1-392 P11L/R197Q/I340M) with L11P, Q197R, M340I
From the text: as §1

Test [5] addresses T5, alanine:glyoxylate aminotransferase (AGT), AGT WT (major allele) (Homo sapiens, UniProt P21549, I340M).
T5 construct: gene AGXT; His-tagged full-length AGT from pCOLDII, expressed in E. coli BL21, IMAC and SEC; about 90 kDa dimer
T5 sequence (P21549 1-392 I340M): T1 sequence (P21549 1-392 P11L/R197Q/I340M) with L11P, Q197R
From the text: as §1

The target in test [6] is T6, alanine:glyoxylate aminotransferase (AGT), AGT WT (major allele) (Homo sapiens, UniProt P21549, A295T/I340M/P11L).
T6 construct: gene AGXT; His-tagged full-length AGT from pCOLDII, expressed in E. coli BL21, IMAC and SEC; about 90 kDa dimer
T6 sequence (P21549 1-392 P11L/A295T/I340M): T1 sequence (P21549 1-392 P11L/R197Q/I340M) with Q197R, A295T
From the text: as §1

Structures are written as SMILES. Residue numbers refer to the chain shown, from its start.

For the compound `Cc1ncc(COP(=O)(O)O)c(C=O)c1O` [PLP], the Kd amounted to 156 ± 34 nM in test [1]; 157 ± 15 nM in test [2]; 134 ± 26 nM in test [3]; 100 ± 30 nM in test [4]; 172 ± 42 nM in test [5]; 71 ± 16 nM in test [6].

These data come from publication PMC3796444 (PLoS ONE, 2013).
